“Also recorded” adds a separate entry of the source. Bridges are numbered along the chain shown (N, C = ends).
Tests used:
NGF [1] = molecular target: T1, NGF (Mus musculus, UniProt P01139); assay: NGF protomer crosslinking with BS3 (NGF conformation), metal ions; assay type: biochemical
T1 construct: homodimer
Procedure: For crosslinking NGF […], 0.4 mM BS^3 was added to the mixture and incubated for 30 minutes at 25° C. […] For CD studies, NGF (50 μg/ml) was dissolved in 50 mM Tris-HCl buffer and spectra recorded using a computer controlled Jasco J-600 spectropolarimeter. Samples were acquired in the absence or presence of Zn^2+ (100 μM) at 22° C. in a 2 mm quartz cell averaged over eight scans. Modification of His residues by DEPC was carried out as previously described, where the molar excess of DEPC added and the extent of reaction was determined by evaluating the loss of binding activity of the modified product.

NGF [2] = molecular target: T1, NGF; assay: Circular dichroism of NGF; settings: 100 μM, 22° C.
Procedure: For conformation and dimer integrity studies, 0.1 nM ^125 I-NGF was incubated in the presence or absence of Zn^2+ in HKR buffer for 2 hours at 4° C. in a total volume of 0.1 ml. For crosslinking NGF […], 0.4 mM BS^3 was added to the mixture and incubated for 30 minutes at 25° C. The reaction was quenched with reducing SDS PAGE sample buffer, electrophoresed using a linear 15% acrylamide gel and autoradiographed. To assess the dimeric nature of NGF in the presence of Zn^2+, ^125 I-NGF was electrophoresed in a non-reducing SDS PAGE system as described, autoradiographed, and the labelled proteins excised from the gels and counted. For CD studies, NGF (50 μg/ml) was dissolved in 50 mM Tris-HCl buffer and spectra recorded using a computer controlled Jasco J-600 spectropolarimeter. Samples were acquired in the absence or presence of Zn^2+ (100 μM) at 22° C. in a 2 mm quartz cell averaged over eight scans. Modification of His residues by DEPC was carried out as previously described, where the molar excess of DEPC added and the extent of reaction was determined by evaluating the loss of binding activity of the modified product.

p75 = assay: Affinity cross-linking of 125I-NGF to p75 on PC12 cells; assay type: binding, rat; settings: for Inhibition of p75 Interaction: 0.1 nM 125I-NGF, PC12 cells
Procedure: The ability of the peptides under study to interfere with binding of NGF to NGF receptors was evaluated by analysis of inhibition of the chemical cross-linking of ^251 I-NGF to the common neurotrophin receptor p75 (Chao, J. Neurobiol. 25:1373-1385 (1994)) and the specific NGF receptor TrkA (Barbacid, J. Neurobiol. 25: 1386-1403 (1994)). Immunoprecipitation and polyacrylamide gel electrphoresis of cross linked receptors allowed identification of both receptors, as shown in FIG. 7A. […] At concentrations of 200 μM, neither R11(l) nor R11(m) were able to inhibit greater than 50% of the observed ^125 I-labelling.
The ability of the peptides derived from the 68-58/108-110 region of NGF to antagonize NGF interaction with the p75 and TrkA receptors was determined The peptides tested were bicyclic (BC) 68-58/108-110, cyclic (C) 68-58/108-110, and linear (L) 68-58/108-110, each of which are illustrated in FIGS. 2 and 5D
Receptor cross-linking studies were performed on PC12 rat pheochromocytoma cells (ATCC CRL 1721; Greene et al., Proc. Natl. Acad. Sci. USA 73: 2424-2432 (1976)) which were maintained in RPMI1640 (Gibco) supplemented with 10% fetal calf serum (Gibco). Cells were harvested by incubation and trituration in Ca^2+ and Mg^2+ free Gey's balanced salt solution, washed and suspended in 10 mM HEPES buffer (pH 7.35) containing 125 mM NaCl, 4.8 mM KCl, 1.3 mM CaCl2, […], 1.2 mM KH2 PO4, 1 g/L sucrose and 1 g/L bovine serum albumin (HEPES Krebs Ringer buffer, HKR buffer) at 10^6 cells/mL. Subsequent procedures were carried out at 4° C. unless otherwise noted.
For receptor crosslinking, ^125 I-NGF was prepared by the method of Sutter et al. (J. Biol. Chem. 254: 5972-5982 (1979)) from NGF isolated from mouse submaxillary gland (as described in Mobley et al., Biochemistry 15:1543 (1976)) obtained from Cedarlane.
[…] Control PC12 cells were incubated in HKR buffer in the presence of ^125 I-NGF only (no NGF peptide).
Receptor proteins were cross-linked with either 0.4 mM bis(sulfosuccinimidyl)suberate (BS^3, Pierce) for TrkA, or a combination of 2 mM […] (EDC) and 2 mM N-hydroxysulfosuccinimide (S-NHS) for p75^NTR as indicated. All cross-linking agents (from Pierce) were dissolved in water and added in 20 μL aliquots and the reaction allowed to proceed for 30 min at 25° C. On completion of the cross-linking reaction, the cells were washed three times in HKR buffer with BSA at 4° C. to remove excess free radiolabelled ligand and reagents. The cells were solubilized in 100 μL SDS sample buffer Samples were separated on a modified Laemmli discontinues acrylamide gel system (Laemmli, Nature 227:680 (1970)) using 4% SDS-PAGE stacking gel and a gradient urea polyacrylamide separating gel ranging from 4.5% acrylamide/18% urea to 7.5% acrylamide/48% urea. The gels were fixed and processed for autoradiography using -70° C. exposure with Kodak XAR film and manual processing (FIG. 7B).
For positive receptor identification, immunoprecipitation studies were performed. Samples of 10^7 cells in 1 mL HKR buffer were cross-linked under the conditions described above, washed in HKR buffer and solubilized in non-denaturing lysis buffer (1% NP40, 10% glycerol, 1 mM phenylmethylsulfonylfluoride, 10 μg/mL leupeptin and 0.5 mM o-vanadate in Tris-buffered saline) (Kaplan et al., Nature 350:1 158-160 (1991)). The solutions were clarified by centrifugation and immunoprecipitated with either mAb 192 (monoclonal antibody for p75; Cedarlane) or rabbit anti-TrkA, which had been raised against a COOH-terminal peptide of TrkA. The ^125 I-NGF cross-linked receptor-antibody complexes were isolated using 50 μL of a 50% solution of rabbit anti-mouse agarose (Sigma; for mAb 192) or protein A-Sepharose (Pharmcia; for anti-Trk) equilibrated in lysis buffer. Immunoprecipitates were washed three times in lysis buffer and the pellets denatured in SDS reducing sample buffer. […]

[3] = tested on: kindling-induced seizures; assay: Kindling (seizure development) in rats; assay type: in vivo, Male Long-Evans hooded rats; settings: intraventricular infusion; peptide 45 μM, anti-NGF 100 μg/day
Procedure: The effect of the present neurotrophin-derived peptides on kindling was determined as follows.
Male Long-Evans hooded rats (300-400 g) were used. The animals were housed individually, maintained on an ad lib feeding schedule and kept on a 12 h on/12 h off light cycle. The rats were anaestetised with 0.1 mL per 100 g body weight of 100 mg/mL ketamine hydrochloride (Roger/STB Inc., London, Canada) and 0.05 mL per 100 g body weight of 20 mg/mL xylocaine 2% hydrochloride (Astra, Mississauga, Canada), and then placed in a stereotaxic holder. […] Following implantation of the electrode, a cannula (Alzet brain infusion kit, Alza Corp.) was implanted in the lateral ventricle, 5 mm below the skull surface, at 0.6 mm caudal to bregma and 1.3 mm lateral to the midline. It was firmly attached to the skull with dental cement and anchored with tee stainless steel screws. […] Histological examination of lateral ventricle sections was done to confirm that the cannula was correctly placed. […] There were five groups of test animals, 5 animals per peptide test group, 10 animals in the negative control group and 12 animals in the positive control group. […]
Following a three-day recovery, the kindling stimulations were started. […] Progression of kindling was monitored behaviorally and electrophysiologically by recording the behavioral seizure stages and the duration and magnitude of afterdischarges.

T1 sequence (P01139 122-239): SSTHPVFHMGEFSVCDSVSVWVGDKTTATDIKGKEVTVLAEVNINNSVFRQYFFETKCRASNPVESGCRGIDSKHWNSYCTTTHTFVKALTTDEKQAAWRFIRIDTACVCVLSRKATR

Row | Compound | Crosslinking of 125I-NGF to larger complexes (BSA or ovalbumin) (NGF [1]) | NGF monomer crosslinking by BS3 (NGF [1]; 0.1 nM 125I-NGF, CaEDTA together with Zn2+) | NGF Protomer Conformation (active/inactive) (NGF [1]; 100 μM) | Crosslinking of NGF promoters after His modification (DEPC) (NGF [1]; DEPC-modified NGF) | Mean molar ellipticity of NGF by CD (NGF [2]) | Inhibition of p75 Interaction (p75; 20 μM peptide) | Inhibition of p75 Interaction (p75; 200 μM peptide, listed as BC) | Covalent attachment of 125I-NGF to receptor (p75) (p75; 200 μM, result in words) | Delay of the onset of kindling (number of stimulations to stage-5 seizures) [3]
1 | [Zn+2] [Zn^2+] | promoted | NGF monomer crosslinking was inhibited | active | not affected by Zn^2+; also recorded: abolished | significant decrease | – | – | – | –
2 | NH2 -Cys-Gly-Ser-Glu-Val-Pro-Asn-Ser-Ala-Arg-Cys-Cys-Val-Cys-OH (H-CGSEVPNSARCCVC-OH; disulfide 1-14, 11-12) [R11, bicyclic peptide of NGF residues 68-58/108-110, two disulfide bonds] | – | – | – | – | – | + (indicates less than 50% inhibition) | ++ (indicates greater than 50% inhibition) | effectively prevented the covalent attachment | approximately equal to that of the anti-NGF IgG
